Reference: patent US20080090749A1 (priority 2005, published 2008)
Several values for one entry are separate records, joined by “and”; a condition that tells them apart may be missing. Identical values can stand only once.

Tests used:
[1] = system: diarrhea under stress loading using a stress cage; experiment: Stress loading using a stress cage, histidine diet (Example 1), fecal examination; assay type: in vivo, Wistar rats; details: for Number of individuals with diarrhea / Number of individuals with soft feces / Number of individuals without diarrhea or soft feces: 8 individuals examined
Method: (§1) After being preliminarily reared on an ordinary diet (CRF-1, Charles River Japan Inc.) for 1 week, Wistar rats (4 weeks of age, male) were fed an ordinary diet (control group) or a histidine diet prepared by mixing finely milled L-histidine hydrochloride at 2% by weight in the ordinary diet (histidine dosing group) for 2 weeks. In the mornings of day 15, day 16, and day 17 after the start of the rearing with the histidine diet, stress loading was performed by the method described below, and the feces excreted by the rats were examined for weight and description.
After being allowed to stand in a small individual cage (13.5×27×12 cm) for about 2 hours, each rat was transferred to a constraint (stress) cage having a size such that the rat cannot move (5×17×4 cm), and further allowed to stand for 2 hours, whereby stress loading was performed (control stress group, histidine dosing stress group). The feces excreted by the rat were examined for description, number, and weight. The stress loading and fecal examination were performed on each individual for three consecutive days.
(§2) Eight rats were used for each group.

Histamine = Histamine content in the large intestine of stress-loaded rats by LC/MS; assay type: in vivo, Wistar rats
Method: as §1
(§3) The large intestines of stress-loaded rats were collected and frozen in liquid nitrogen on day 17, and stored at −80° C. until use. Extracted from the frozen samples by the following protocol were noradrenaline, histamine, serotonin and 3-methylhistidine, which were then quantified by LC/MS.
(§4) Each frozen rat tissue (large intestine) stored at −80° C. as disrupted using CryoPress (manufactured by Microtec Co., Ltd.), and 1 mL of methanol per 100 mg at −80° C. was added. The mixture was disrupted using FastPrep (30 sec×2 times), and 0.8 mL of the disruption liquid was recovered. 1 mL of cold chloroform was added thereto, and the mixture was stirred using Vortex for 1 minute, after which 1 mL of cold H2O was added. After the mixture was further stirred using Vortex for 1 minute, it was allowed to stand for 30 minutes. […]

Noradrenaline = Noradrenaline content in the large intestine of stress-loaded rats by LC/MS; assay type: in vivo, Wistar rats; details: Stress+ His diet+; day 17; N = 8
Method: as §1, §3, §4

3-methylhistidine = 3-methylhistidine content in the large intestine of stress-loaded rats by LC/MS (index for proteolysis); assay type: in vivo, Wistar rats
Method: as §1, §3, §4

[2] = system: soft feces due to stress loading by front leg constraint; experiment: Stress loading by front leg constraint, histidine oral administration (Example 3), fecal examination; assay type: in vivo, Wistar rats
Method: (§5) After being preliminarily reared on an ordinary diet (CRF-1, Charles River Japan Inc.) for 1 week, Wistar rats (6 weeks of age, male) received histidine given by gavage at a frequency of twice a day (morning and evening) on day 8 and day 9 as described above. A 5 mL dosing volume of 0.5% methylcellulose solution (control solution) for the control group, or a solution of L-histidine hydrochloride dissolved (partially suspended) in 0.5% methylcellulose solution to a content ratio of 1.5 g per kg body weight of each rat for the histidine dosing group, was orally administered using a sonde.
In the morning of day 10, the same histidine solution or control solution as those given on the previous day was once orally administered. One hour later, under low-dose ether anesthesia, stress loading was performed by constraining the front legs with a tape of the Scotch brand. After each animal was allowed to stand for 1 hour in an individual cage, the feces excreted by the rat were examined for description, number, and weight.
as §2

[3] = system: diarrhea due to stress loading using a stress cage; experiment: Stress loading using a stress cage, histidine bolus oral administration (Example 2), fecal examination; assay type: in vivo, Wistar rats
Method: as §5, with “after the start of the preliminary rearing.” for “as described above.”, “sonde. Stress loading was performed using a stress cage in the same manner as Example 1. That is, after each rat was transferred to a small individual cage (13.5×27×12 cm) in the morning of day 10, and allowed to stand for 2 hours, the same histidine solution or control solution as those given on the previous day were once orally administered. After being allowed to stand in a small individual cage for 2 hours, each rat was transferred to a constraint cage (5×17×4 cm) and allowed to stand for 1 hour, whereby stress loading was performed. The feces excreted by the rat were examined for description, number, and weight.” for “sonde.”
as §2

cholera toxin = details: cited from earlier work
Serotonin = Serotonin content in the large intestine of stress-loaded rats by LC/MS; assay type: in vivo, Wistar rats
Method: as §1, §3, §4

[4] = system: ulcerative damage of the intestine; details: reported; cited from earlier work
[5] = individual rats, 2% L-histidine hydrochloride diet, stress cage, stress day 1, hydrochloride
[6] = individual rats, 2% L-histidine hydrochloride diet, stress cage, stress day 2, hydrochloride
[7] = individual rats, 2% L-histidine hydrochloride diet, stress cage, stress day 3, hydrochloride
[8] = stress loading Day 1, histidine diet
[9] = stress loading Day 2, histidine diet
[10] = stress loading Day 3, histidine diet
[11] = Stress+ His diet+, day 17, N = 8
[12] = individual rats, 1.5 g per kg oral, front leg constraint 1 hour, hydrochloride
[13] = 8 individuals examined, histidine bolus oral administration
[14] = group mean, 8 rats, 1.5 g per kg oral, stress cage 1 hour
[15] = individual rats, 1.5 g per kg oral, stress cage 1 hour, hydrochloride

Cl.N[C@@H](Cc1c[nH]cn1)C(=O)O [Histidine, L-histidine hydrochloride]
effect of histidine administration on diarrhea ([1]; histidine diet, stress cage, compared to the control group): suppressive effect
Number of feces Day 1 normal feces ([1]; individual rats, 2% L-histidine hydrochloride diet 2 weeks, stress cage 2 hours, stress day 1, hydrochloride): 6 and 3 (2×) and 1 and 11 and 10 and 5 and 0
Fecal weight Total weight Day 1 [1, 5]: 1.01 g and 1.65 g and 1.94 g and 2.23 g and 2.82 g and 2.46 g and 1.77 g and 0.00 g
Number of feces Day 1 diarrhea [1, 5]: 0 (7×) and 1
Number of feces Day 1 soft feces [1, 5]: 0 (3×) and 1 (2×) and 3 (3×)
Fecal weight Total weight Day 2 [1, 6]: 0.58 g and 0.56 g and 4.02 g and 2.38 g and 0.25 g and 3.48 g and 1.28 g and 1.26 g
Number of feces Day 2 diarrhea [1, 6]: 0 (7×) and 2
Number of feces Day 2 normal feces [1, 6]: 4 and 2 and 10 and 8 and 3 and 5 and 6 (2×)
Number of feces Day 2 soft feces [1, 6]: 0 (4×) and 3 and 2 and 5 and 1
Fecal weight Total weight Day 3 [1, 7]: 1.15 g and 0.46 g and 3.27 g and 1.00 g and 2.22 g and 3.99 g and 1.64 g and 0.41 g
Number of feces Day 3 diarrhea [1, 7]: 0 (7×) and 1
Number of feces Day 3 normal feces [1, 7]: 6 (5×) and 1 and 4 and 3
Number of feces Day 3 soft feces [1, 7]: 0 (3×) and 1 (2×) and 4 (2×) and 5
Number of individuals with diarrhea [1, 8]: 1
Number of individuals with soft feces [1, 8]: 5
Number of individuals without diarrhea or soft feces [1, 8]: 3
Number of individuals with diarrhea [1, 9]: 1
Number of individuals with soft feces [1, 9]: 4
Number of individuals without diarrhea or soft feces [1, 9]: 4
Number of individuals with diarrhea [1, 10]: 1
Number of individuals with soft feces [1, 10]: 5
Number of individuals without diarrhea or soft feces [1, 10]: 3
Histamine content in the large intestine (Tissue wet weight) (Histamine; [11]): 6.61 nmol/g
effect on increase of histamine tissue content in the large intestine due to stress loading (Histamine; histidine diet): tended to be suppressed
Noradrenaline content in the large intestine (Tissue wet weight) (Noradrenaline): 0.96 nmol/g
3-methylhistidine content in the large intestine (Tissue wet weight) (3-methylhistidine; [11]): 0.13 nmol/g
effect on increase of 3-methylhistidine with stress loading (3-methylhistidine; histidine diet): suppressed
Onset of diarrhea, group line ([2]; Mean line of group, 8 rats): 0
Mean number of normal feces ([2]; Table 8, front leg constraint): 0.88
Mean number of soft feces ([2]; Table 8, front leg constraint): 3.75
Total fecal weight, Mean ([2]; group mean, 8 rats): 1.68
Number of normal feces, Mean ([2]; group mean, 8 rats, Table 7): 0.88
Number of soft feces, Mean ([2]; group mean, 8 rats, Table 7): 3.75
Onset of diarrhea ([2]; individual rats, 1.5 g per kg oral, front leg constraint 1 hour): none
Number of normal feces [2, 12]: 4 and 2 and 0 (5×) and 1
Number of soft feces [2, 12]: 5 (2×) and 2 (2×) and 0 and 6 (2×) and 4
Total fecal weight [2, 12]: 2.12 and 0.73 and 1.03 and 0 and 2.18 and 2.47 and 2.63 and 2.31
effect of histidine administration on diarrhea ([2]; oral administration, front leg constraint, compared to the control group): suppressive effect
Number of individuals with diarrhea [3, 13]: 0
Number of individuals with soft feces [3, 13]: 8
Number of individuals without diarrhea or soft feces [3, 13]: 0
effect of histidine administration on diarrhea ([3]; bolus oral administration, stress cage, compared to the control group): suppressive effect
Number of normal feces, Mean [3, 14]: 0.125
Number of soft feces, Mean [3, 14]: 6
Total fecal weight, Mean [3, 14]: 1.64 g
Onset of diarrhea, individuals in group ([3]; group of 8 rats, 1.5 g per kg oral, stress cage 1 hour): 0 individual
Onset of diarrhea ([3]; individual rats, 1.5 g per kg oral, stress cage 1 hour): none
Number of normal feces [3, 15]: 0 (7×) and 1
Number of soft feces [3, 15]: 12 and 8 and 3 and 5 and 6 (2×) and 4 (2×)
Total fecal weight [3, 15]: 2.379 g and 2.7 g and 0.852 g and 2.077 g and 1.515 g and 1.975 g and 0.72 g and 0.94 g
action on the gut water secretion by cholera toxin (cholera toxin): suppressive action
Serotonin content in the large intestine (Tissue wet weight) (Serotonin; [11]): 6.63 nmol/g
effect on increase of serotonin tissue content in the large intestine due to stress loading (Serotonin; histidine diet): tended to be suppressed
effect on ulcerative damage of the intestine by infectious microorganisms and drugs [4]: Mitigates
